Measured values reported in PMC8102066 (eLife, 2021).
Values joined by “and” are separate entries in the source; they are usually repeats but may differ in a detail not shown here. Equal values may be shown once. Read-outs that look alike come from different tables or passages of the source.

What was measured:
[1] = target: mGluR3-C127A-3xTM4 (Rattus norvegicus, UniProt P31422, C127A/F690A/G694A/S686A); experiment: SiMPull subunit counting in the presence of ligands; conditions: SNAP-mGluR3-C127A-3xTM4 in presence of the ligand; single replicates per experiment day
[2] = target: T1, mGluR2-C121A-3xTM4 (Rattus norvegicus, UniProt P31421, A677S/A681F/A685G/C121A); experiment: as above
T1 construct: expressed in transfected cells; host or cells: HEK 293 T (detergent lysate, pulled down by anti-HA antibody)

[3] = target: T2, mGluR2-C121A-3xTM4-I779A (Rattus norvegicus, UniProt P31421, A677S/A681F/A685G/C121A/I779A); experiment: as above; conditions: SNAP-mGluR2-C121A-3xTM4-I779A in presence of the ligand; single replicates per experiment day
T2 construct: expressed in transfected cells; host or cells: HEK 293 T (detergent lysate, pulled down by anti-HA antibody)

[4] = target: mGluR2 (Rattus norvegicus, UniProt P31421, INS660ASEIGTGFPFDPHYVEVLGERMHYVDVGPRDGTPVLFLHGNPTSSYVWRNIIPHVAPTHRCIAPDLIGMGKSDKPDLGYFFDDHVRFMDAFIEALGLEEVVLVIHDWGSALGFHWAKRNPERVKGIAFMEFIRPIPTWDEWPEFARETFQAFRTTDVGRKLIIDQNVFIEGTLPMGVVRPLTEVEMDHYREPFLNPVDREPLWRFPNELPIAGEPANIVALVEEYMDWLHQSPVPKLLFWGTPGVLIPPAEAARLAKSLPNCKAVDIGPGLNLLQEDNPDLIGSEIARWLSTLEISGLE); experiment: Inter-TMD FRET sensor (HaloTag in ICL2), live cells; conditions: mGluR2, inter-TMD FRET
[5] = target: T3, mGluR2 (Rattus norvegicus, UniProt P31421); experiment: Inter-LBD FRET (N-terminal SNAP-tags), live cells; conditions: mGluR2, inter-LBD FRET
[6] = target: T4, mGluR2-I779A (Rattus norvegicus, UniProt P31421, I779A); experiment: Inter-TMD FRET sensor (HaloTag in ICL2), live cells; format: cell-based; conditions: for FRET response amplitude: mGluR2-I779A, inter-TMD FRET
T4 construct: we performed calcium imaging experiments with mutations in the full-length mGluR2 background; expressed in transfected cells; host or cells: HEK 293 T
Description: Next, we asked how perturbing the TM6 interface would alter the conformational dynamics detected by our TMD FRET sensors.

[7] = target: T5, mGluR2-3xTM4_W (Rattus norvegicus, UniProt P31421, A677W/A681W/A685W); experiment: Calcium imaging in HEK 293 T cells; format: cell-based; conditions: normalized to 1 mM glutamate, replicates
T5 construct: expressed in transfected cells; host or cells: HEK 293 T
Procedure: (§1) We tested this by introducing bulky, hydrophobic tryptophan residues into outward facing residues of TM4 to disrupt inter-subunit interaction.
(§2) Approximately 30 ROIs were analyzed per movie.

[8] = target: T6, mGluR3-3xTM4_W (Rattus norvegicus, UniProt P31422, F690W/G694W/S686W); experiment: Calcium imaging in HEK 293 T cells; format: cell-based; conditions: for Calcium response amplitude: normalized to saturating glutamate
T6 construct: expressed in transfected cells; host or cells: HEK 293 T
Procedure: as §1, §2

[9] = target: T3, mGluR2; experiment: GIRK channel whole cell patch clamp in HEK 293 T cells
[10] = target: mGluR3-3xTM4 (Rattus norvegicus, UniProt P31422, F690A/G694A/S686A); experiment: Inter-LBD FRET (N-terminal SNAP-tags), live cells; conditions: for FRET response amplitude: mGluR3-3xTM4, inter-LBD FRET
[11] = target: mGluR3-G694A (Rattus norvegicus, UniProt P31422, G694A); experiment: Calcium imaging in HEK 293 T cells; conditions: for Calcium response amplitude: mGluR3-G694A
[12] = target: mGluR3-C127A-I788A (Rattus norvegicus, UniProt P31422, C127A/I788A); experiment: SiMPull subunit counting in the presence of ligands
mGluR3-C127A-I788A, sequence (P31422 23-879 C127A/I788A): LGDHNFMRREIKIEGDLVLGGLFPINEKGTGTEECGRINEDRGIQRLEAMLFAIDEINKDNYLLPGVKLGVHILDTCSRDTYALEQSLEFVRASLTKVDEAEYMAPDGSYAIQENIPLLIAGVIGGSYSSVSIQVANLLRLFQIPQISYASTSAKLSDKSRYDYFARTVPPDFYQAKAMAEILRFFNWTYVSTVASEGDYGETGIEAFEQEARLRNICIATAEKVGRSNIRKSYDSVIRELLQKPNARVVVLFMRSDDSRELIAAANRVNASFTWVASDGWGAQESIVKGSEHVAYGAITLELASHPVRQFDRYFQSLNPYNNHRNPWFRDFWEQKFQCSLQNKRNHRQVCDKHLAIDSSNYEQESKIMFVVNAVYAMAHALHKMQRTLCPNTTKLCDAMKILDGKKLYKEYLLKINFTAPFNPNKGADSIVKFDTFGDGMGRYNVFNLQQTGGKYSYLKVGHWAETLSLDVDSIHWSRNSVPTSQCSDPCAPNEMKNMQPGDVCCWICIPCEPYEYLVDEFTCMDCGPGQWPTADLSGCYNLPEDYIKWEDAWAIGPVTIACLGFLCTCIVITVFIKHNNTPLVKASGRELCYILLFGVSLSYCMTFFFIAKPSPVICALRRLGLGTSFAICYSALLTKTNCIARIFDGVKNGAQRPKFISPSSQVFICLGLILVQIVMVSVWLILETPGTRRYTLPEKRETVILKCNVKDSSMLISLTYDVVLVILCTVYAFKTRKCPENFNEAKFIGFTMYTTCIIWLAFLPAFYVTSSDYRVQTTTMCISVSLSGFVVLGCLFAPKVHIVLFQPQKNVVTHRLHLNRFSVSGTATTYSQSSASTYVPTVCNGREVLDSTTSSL

T4 sequence (P31421 19-872 I779A): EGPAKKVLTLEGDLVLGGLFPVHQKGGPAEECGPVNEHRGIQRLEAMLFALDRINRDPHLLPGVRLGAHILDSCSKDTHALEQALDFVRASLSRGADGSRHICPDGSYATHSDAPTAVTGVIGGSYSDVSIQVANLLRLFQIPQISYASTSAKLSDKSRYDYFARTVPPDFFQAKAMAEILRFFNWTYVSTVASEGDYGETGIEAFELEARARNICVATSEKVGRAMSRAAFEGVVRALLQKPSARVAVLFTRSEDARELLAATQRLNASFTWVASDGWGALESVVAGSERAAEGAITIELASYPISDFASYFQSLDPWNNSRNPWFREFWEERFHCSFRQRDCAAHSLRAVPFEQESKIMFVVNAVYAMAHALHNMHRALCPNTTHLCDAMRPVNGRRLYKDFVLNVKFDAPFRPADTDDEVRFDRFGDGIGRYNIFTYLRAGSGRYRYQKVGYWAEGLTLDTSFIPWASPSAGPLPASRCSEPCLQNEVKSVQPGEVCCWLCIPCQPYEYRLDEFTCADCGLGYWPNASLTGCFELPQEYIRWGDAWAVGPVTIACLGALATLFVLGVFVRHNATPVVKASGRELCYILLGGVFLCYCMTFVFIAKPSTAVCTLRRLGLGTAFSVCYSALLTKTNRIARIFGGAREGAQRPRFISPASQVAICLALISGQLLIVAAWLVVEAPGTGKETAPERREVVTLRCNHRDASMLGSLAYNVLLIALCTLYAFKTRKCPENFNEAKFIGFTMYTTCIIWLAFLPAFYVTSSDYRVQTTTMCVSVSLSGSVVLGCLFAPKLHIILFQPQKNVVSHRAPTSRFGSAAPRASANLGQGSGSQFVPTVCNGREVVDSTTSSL
mGluR3-C127A-3xTM4, sequence (P31422 23-879 C127A/S686A/F690A/G694A): as the sequence (P31422 23-879 C127A/I788A) above, with S664A, F668A, G672A, A766I counted along it
mGluR3-3xTM4, sequence (P31422 23-879 S686A/F690A/G694A): as the sequence (P31422 23-879 C127A/I788A) above, with A105C, S664A, F668A, G672A, A766I counted along it
UniProt P31421, sequence (P31421 with tags, fused parts or gaps with the stated changes): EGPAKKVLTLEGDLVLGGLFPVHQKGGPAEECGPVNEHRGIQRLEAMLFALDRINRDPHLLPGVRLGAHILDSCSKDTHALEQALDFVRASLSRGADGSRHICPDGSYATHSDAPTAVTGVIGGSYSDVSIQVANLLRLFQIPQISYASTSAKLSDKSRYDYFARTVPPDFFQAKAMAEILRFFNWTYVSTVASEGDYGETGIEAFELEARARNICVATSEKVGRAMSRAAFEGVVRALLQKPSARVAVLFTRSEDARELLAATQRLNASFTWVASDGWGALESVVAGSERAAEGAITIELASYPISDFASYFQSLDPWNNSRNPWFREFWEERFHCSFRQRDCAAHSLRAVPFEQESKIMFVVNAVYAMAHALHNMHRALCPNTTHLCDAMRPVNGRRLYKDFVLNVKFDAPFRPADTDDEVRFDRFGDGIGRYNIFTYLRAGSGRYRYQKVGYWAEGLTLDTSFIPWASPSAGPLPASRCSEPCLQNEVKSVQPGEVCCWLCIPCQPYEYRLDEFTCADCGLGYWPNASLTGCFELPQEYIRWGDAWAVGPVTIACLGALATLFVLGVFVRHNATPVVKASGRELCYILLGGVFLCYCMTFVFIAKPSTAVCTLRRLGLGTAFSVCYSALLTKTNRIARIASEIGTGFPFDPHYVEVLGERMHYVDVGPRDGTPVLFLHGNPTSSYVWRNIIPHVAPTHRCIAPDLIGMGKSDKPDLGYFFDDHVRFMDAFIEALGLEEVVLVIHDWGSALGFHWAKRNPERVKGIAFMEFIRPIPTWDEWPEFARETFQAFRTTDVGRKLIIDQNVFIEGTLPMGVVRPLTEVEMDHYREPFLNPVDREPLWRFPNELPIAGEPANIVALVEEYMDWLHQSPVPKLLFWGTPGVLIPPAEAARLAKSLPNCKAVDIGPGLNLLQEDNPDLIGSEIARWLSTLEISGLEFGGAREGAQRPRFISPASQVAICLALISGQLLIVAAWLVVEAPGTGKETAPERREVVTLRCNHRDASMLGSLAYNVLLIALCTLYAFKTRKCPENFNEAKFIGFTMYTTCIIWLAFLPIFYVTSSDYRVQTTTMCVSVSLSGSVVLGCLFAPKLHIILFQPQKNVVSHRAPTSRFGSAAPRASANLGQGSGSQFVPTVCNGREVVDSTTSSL
mGluR3-G694A, sequence (P31422 23-879 G694A): as the sequence (P31422 23-879 C127A/I788A) above, with A105C, G672A, A766I counted along it
T5 sequence (P31421 19-872 A677W/A681W/A685W): as the sequence (P31421 19-872 I779A) above, with A659W, A663W, A667W, A761I counted along it
T3 sequence (P31421 19-872): as the sequence (P31421 19-872 I779A) above, with A761I counted along it
T2 sequence (P31421 19-872 C121A/A677S/A681F/A685G/I779A): as the sequence (P31421 19-872 I779A) above, with C103A, A659S, A663F, A667G counted along it
T6 sequence (P31422 23-879 S686W/F690W/G694W): as the sequence (P31422 23-879 C127A/I788A) above, with A105C, S664W, F668W, G672W, A766I counted along it
T1 sequence (P31421 19-872 C121A/A677S/A681F/A685G): as the sequence (P31421 19-872 I779A) above, with C103A, A659S, A663F, A667G, A761I counted along it

In the case of `N[C@@H](CCC(=O)O)C(=O)O` [glutamate], the “% Dimerization” value [1] is reported as 75.71% and 66.43% and 55.31% and 68.06% and 59.35% and 70.85%, the “% Dimerization” value ([2]; SNAP-mGluR2-C121A-3xTM4 in presence of the ligand, single replicates per experiment day) is reported as 89.26% and 88.28% and 81.34% and 81.93% and 82.70% and 80.09% and the “effect of ligand on dimerization (SiMPull)” value ([2]; saturating concentration) is reported as “clear increase in dimerization”. For the same molecule, the “% Dimerization” value [3] was 44.05% and 34.78% and 55.93% and 49.13% and 47.14% and 45.12%, the FRET response amplitude ([4]; Glutamate 10 nM) was 0.00 and the FRET response amplitude ([4]; Glutamate 100 nM) was 0.00. The FRET response amplitude ([4]; Glutamate 100 uM) was 0.97 and 0.96 and 0.95 and 0.92 and 1.04 and 0.99 and 1.01, the FRET response amplitude ([4]; Glutamate 1 mM) was 1.00 and the FRET response amplitude ([5]; Glutamate 10 nM) was 0.00. The FRET response amplitude ([5]; Glutamate 100 nM) was 0.00, the FRET response amplitude ([5]; Glutamate 3 uM) was 0.13 and 0.11 and 0.12 and 0.09 and the FRET response amplitude ([5]; Glutamate 10 uM) was 0.41 and 0.51 and 0.46 and 0.30. For the same molecule, the FRET response amplitude ([5]; Glutamate 100 uM) was 0.98 and 1.00 and 0.985, the FRET response amplitude ([5]; Glutamate 1 mM) was 1.00 and the FRET response amplitude ([6]; Glutamate 10 nM) was 0.00. For the same molecule, the FRET response amplitude ([6]; Glutamate 100 nM) was 0.00, the FRET response amplitude ([6]; Glutamate 1 uM) was 0.00 and the FRET response amplitude ([6]; Glutamate 100 uM) was 0.75 and 0.90 and 0.82. The FRET response amplitude ([6]; Glutamate 1 mM) was 1.00, the “change in glutamate EC50 compared to mGluR2” value ([6]; inter-TMD FRET sensor, right shift) was “two-fold” and the Calcium response amplitude ([7]; Glutamate 100 nM) was 0.00. For the same molecule, the Calcium response amplitude ([7]; Glutamate 1 uM) was 0.00 and 0.08 and 0.04, the Calcium response amplitude ([7]; Glutamate 10 uM) was 0.55 and 0.51 and the Calcium response amplitude ([7]; Glutamate 100 uM) was 1.00 and 0.99 and 0.76. It also gave a Calcium response amplitude ([7]; Glutamate 1 mM) of 1.00, a Calcium response amplitude ([8]; Glutamate 10 nM, replicates) of 0.00 and a Calcium response amplitude ([8]; Glutamate 100 nM, replicates) of 0.00. The Calcium response amplitude ([8]; Glutamate 1 uM, replicates) was 0.09 and 0.064 and 0.00, the Calcium response amplitude ([8]; Glutamate 10 uM, replicates) was 0.20 and 0.28 and 0.12 and 0.22 and the Calcium response amplitude ([8]; Glutamate 100 uM, replicates) was 0.41 and 0.50. It also gave a Calcium response amplitude ([8]; Glutamate 1 mM) of 0.86, a Calcium response amplitude ([8]; Glutamate 10 mM) of 1.00 and an EC50 ([8]; read-out: Glutamate EC50, calcium imaging, normalized to saturating (1 mM) glutamate, unit inferred) of 186 ± 0.27 µM. The GIRK current amplitude ([9]; Glutamate 10 nM) was 0.000, the GIRK current amplitude ([9]; Glutamate 10 uM) was 0.889 and 0.827 and 0.749 and 0.879 and 0.952 and the GIRK current amplitude ([9]; Glutamate 100 uM) was 0.942 and 1.150 and 0.849 and 0.991. The GIRK current amplitude ([9]; Glutamate 1 mM) was 1.000, the FRET response amplitude ([10]; Glutamate 1 nM) was 0.00 and the FRET response amplitude ([10]; Glutamate 10 nM) was 0.00. The FRET response amplitude ([10]; Glutamate 1 uM) was 0.63 and 0.58, the FRET response amplitude ([10]; Glutamate 3 uM) was 0.78 and 0.90 and the FRET response amplitude ([10]; Glutamate 10 uM) was 0.99 and 0.96 and 1.05. The FRET response amplitude ([10]; Glutamate 1 mM) was 1.00, the EC50 ([10]; read-out: Glutamate EC50, LBD FRET, normalized to saturating (1 mM) glutamate, unit inferred) was 0.67 ± 0.05 µM and the Calcium response amplitude ([11]; Glutamate 10 nM) was 0.00. The Calcium response amplitude ([11]; Glutamate 5 uM) was 0.50 and 0.59 and 0.67, the Calcium response amplitude ([11]; Glutamate 10 uM) was 0.98 and the Calcium response amplitude ([11]; Glutamate 100 uM) was 1.00. It also gave a Calcium response amplitude ([11]; Glutamate 1 mM) of 1.00, an EC50 ([11]; read-out: Glutamate EC50 (micromolar), calcium imaging, Fig 3F source data) of 4.65 µM and an EC50 ([11]; read-out: Glutamate EC50, calcium imaging, normalized to saturating (1 mM) glutamate) of 4.66 ± 0.03 µM. The “% Dimerization” value ([12]; SNAP-mGluR3-C127A-I788A in presence of the ligand, single replicates per experiment day) was 41.49% and 28.78% and 34.64% and 33.27% and 41.72% and 37.93% and the “effect of ligand on dimerization (SiMPull)” value ([12]; saturating concentration) was “no difference”.
